Our source for the remaining activity values is PMC8286840, “Identifying SARS-CoV-2 antiviral compounds by screening for small molecule inhibitors of Nsp3 papain-like protease” (Biochemical Journal, 2021).

Counter-ions that a name gives are not always drawn. Like-named read-outs stand apart in the source and are kept apart here.

Assay [1] concerns the target T1, SARS-CoV-2 PLpro (nsp3 1564–1878) (Severe acute respiratory syndrome coronavirus 2, UniProt P0DTD1). Description: biochemical. The arrangement: FRET-quenched peptide (Pro3) cleavage by PLpro, 10 min pre-incubation, slope over 20 min, normalised to no-compound control. The conditions noted are these: low concentration screen, read-out: % of control remaining.
In assay [2] the target is T1, SARS-CoV-2 PLpro (nsp3 1564–1878). In words: biochemical. Also noted: FRET-quenched peptide (Pro3) cleavage by PLpro, 10 min pre-incubation, slope over 20 min, normalised to no-compound control. Conditions: high concentration screen, read-out: % of control remaining.

Turning to `C[C@]12CCC(=O)C=C1CC[C@@H]1[C@@H]2[C@@H](O)C[C@@]2(C)[C@H]1CC[C@]2(O)C(=O)CO` [Hydrocortisone], the remaining activity at 1.25 µM in assay [1] (Well no.=562) was found to be 101%; in assay [1] (Well no.=2212), 93%; in assay [1] (Well no.=6439) it was 99.3%; in assay [1] (Well no.=7331) it was 93.2%. The remaining activity at 3.75 µM was 101% in assay [2] (Well no.=562), 96% in assay [2] (Well no.=2212), 102% in assay [2] (Well no.=6439) and 93.7% in assay [2] (Well no.=7331).
`COc1c2c(cc3c1OCO3)CCN(C)C2` [Hydrocotarnine HBr]: the remaining activity at 1.25 µM in assay [1] (Well no.=3462) worked out at 102%. In assay [2] (Well no.=3462), the remaining activity at 3.75 µM was found to be 103%.
Consider `Oc1ccc(O)cc1` [Hydroquinone], for which the remaining activity at 1.25 µM in assay [1] (Well no.=472) stood at 102%; in assay [1] (Well no.=3849) it was 105%. Further, the figures for the remaining activity at 3.75 µM in assay [2] (Well no.=472) and in assay [2] (Well no.=3849) were 99.1% and 106%, respectively.
As to `Nc1c2c(nc3ccccc13)CCCC2O` (stereo not drawn) [Hydroxytacrine maleate], the remaining activity at 1.25 µM in assay [1] (Well no.=514) was 102%. Further, the remaining activity at 3.75 µM in assay [2] (Well no.=514) turned out to be 101%.
For the compound `Nc1c2c(nc3ccccc13)CCCC2O` (stereo not drawn) [Hydroxytacrine], in assay [1] (Well no.=1671), the remaining activity at 1.25 µM stood at 103%. The remaining activity at 3.75 µM in assay [2] (Well no.=1671) turned out to be 103%.
As to `NC(=O)NO` [Hydroxyurea], the figures for the remaining activity at 1.25 µM in assay [1] (Well no.=566) and in assay [1] (Well no.=6544) were 97.4% and 103%, respectively. Moreover, the figures for the remaining activity at 3.75 µM in assay [2] (Well no.=566) and in assay [2] (Well no.=6544) were 96.1% and 100%, respectively.
`OCCOCCN1CCN(C(c2ccccc2)c2ccc(Cl)cc2)CC1` (stereo not drawn) [Hydroxyzine 2HCl]: the remaining activity at 1.25 µM in assay [1] (Well no.=5082) came out at 98.5%. Besides, the remaining activity at 3.75 µM in assay [2] (Well no.=5082) was 99.9%.
Turning to `OCCOCCN1CCN(C(c2ccccc2)c2ccc(Cl)cc2)CC1` (stereo not drawn) [Hydroxyzine (dihydrochloride)], in assay [1] (Well no.=6901), the remaining activity at 1.25 µM came out at 100%. For the same compound, in assay [2] (Well no.=6901), the remaining activity at 3.75 µM was 98%.
Take `CN[C@H]1C[C@@H](N)[C@H](O)[C@@H](O[C@@H]2O[C@H](CO)[C@H](O)[C@@H]3OC4(O[C@H]23)O[C@H]([C@@H](N)CO)[C@H](O)[C@H](O)[C@H]4O)[C@@H]1O` (stereo partly drawn) [Hygromycin B]: the remaining activity at 1.25 µM in assay [1] (Well no.=5221) came out at 99.8%. Also, in assay [2] (Well no.=5221), the remaining activity at 3.75 µM was 102%.
Take `C[C@H](CCC(=O)O)[C@H]1CC[C@H]2[C@@H]3C[C@H](O)[C@@H]4C[C@H](O)CC[C@]4(C)[C@H]3CC[C@]12C` [Hyodeoxycholic acid]: the remaining activity at 1.25 µM in assay [1] (Well no.=5868) was 103%. For the same compound, the remaining activity at 3.75 µM in assay [2] (Well no.=5868) came to 101%.
With `CN1[C@@H]2CC[C@H]1C[C@@H](OC(=O)[C@H](CO)c1ccccc1)C2` [Hyoscyamine], the remaining activity at 1.25 µM in assay [1] (Well no.=3727) was determined as 94.8%. Besides, the remaining activity at 3.75 µM in assay [2] (Well no.=3727) stood at 101%.
In the case of `COC[C@@]12CC[C@H](OC)[C@@]34[C@@H]5C[C@@]6(O)[C@H](OC(=O)c7ccccc7)[C@@H]5[C@@](OC(C)=O)([C@@H]([C@H](OC)[C@H]13)[C@H]4N(C)C2)[C@@H](O)[C@@H]6OC` [Hypaconitine], the remaining activity at 1.25 µM in assay [1] (Well no.=6450) was 88.9%. The remaining activity at 3.75 µM in assay [2] (Well no.=6450) was determined as 87.8%.
As for `Cc1cc(O)c2c(=O)c3c(O)cc(O)c4c5c(O)cc(O)c6c(=O)c7c(O)cc(C)c8c1c2c(c34)c(c78)c65` [Hypericin], the remaining activity at 1.25 µM is 109% in assay [1] (Well no.=520) and 96.4% in assay [1] (Well no.=3725). Also, the remaining activity at 3.75 µM came out at 109% in assay [2] (Well no.=520) and 97.9% in assay [2] (Well no.=3725).
Turning to `COc1c2c3c4c(c(OC)c(=O)c5c(O)cc(OC)c(c6c(OC)cc(O)c(c1=O)c63)c54)[C@@H](C(C)=O)[C@@](C)(O)C2` [Hypocrellin A], in assay [1] (Well no.=3645), the remaining activity at 1.25 µM stood at 94%. For the same compound, the remaining activity at 3.75 µM in assay [2] (Well no.=3645) was determined as 92.4%.
As to `COc1c(O)c2c(=O)cc(OC)c3c4c(OC)cc(=O)c5c(O)c(OC)c6c(c(c1CC(C)=C6C(C)=O)c23)c54` [Hypocrellin B], the remaining activity at 1.25 µM in assay [1] (Well no.=3691) was 100%. In addition, the remaining activity at 3.75 µM in assay [2] (Well no.=3691) worked out at 103%.
